Columns and labels:
HBV DNA = assay: Antiviral activity: inhibition of HBV DNA in supernatant of HepG 2.2.15 cells (dot blot hybridization); type: cell-based, hepatitis B virus (HBV); details: for IC50: Hepatitis B virus, HepG2.2.15, 192 h, HepG 2.2.15 cells, 8 days incubation, hepatitis B-specific band reduced by 50% vs untreated sample, read-out: IC50 (half-maximum inhibitory concentration, HBV DNA); for SI: selectivity index, from TC50 and IC50 in HepG 2.2.15 cells
Procedure: The antiviral activity of the compounds according to the present invention was determined by the methods described by Sells et al. (M. A. Sells, M. L. Chen, g. Acs, Proc. Natl. Acad. Sci., 1987, 84, 1005-1009) and Korba et al., (B. E. Korba, J. L. Gerin, Antiviral Research, 1992, 19. 55-70).
(§1) The antiviral tests were carried out in 96-well microtiter plates. Only growth medium and HepG 2.2.15 cells were added to the first vertical row of the plate as a blank control.
(§2) Stock solutions of the test compounds (50 mM) were first dissolved in DMSO, and further dilutions were prepared in the growth medium of HepG 2.2.15 cell. The compounds according to the present invention, usually in a test concentration of 100 μg/ml (1st test concentration), were pipetted into each well of the second vertical test row of the microtiter plate and subsequently diluted with growth medium plus 2% of foetal calf serum (volume 25 μl) by 2 fold each time, up to 2^10-fold.
225 μl of a HepG 2.2.15 cell suspension (5×10^4 cells/ml) in growth medium plus 2% foetal calf serum were then added to each well of the 96-well microtiter plate.
The test mixture was incubated at 37° C., 5% CO2 for 4 days. The supernatant was subsequently siphoned off and discarded, and 225 μl of freshly prepared growth medium were added to each well. The compounds according to the present invention were added again in a volume 25 μl. The mixture were incubated from another 4 days.
The supernatants were subsequently harvested and siphoned in vacuum onto 96-well dot blot chambers covered with a nylon membrane (in accordance with the instructions of the manufacturer). […]
The viral DNA of the treated HepG 2.2.15 cells on the nylon filter membrane was usually determined using non-radioactive digoxigenin-labelled hepatitis B-specific DNA probes which were in each case labelled with digoxigenin, purified and used for hybridization in accordance with the instructions of the manufacturer.
Briefly speaking, the prehybridization and hybridization were carried out in 5×SSC, 1× blocking agent, 0.1% N-lauroylsacosine, 0.02% SDS and 100 μg of DNA from herring sperm. […] The filler membrane was subsequently washed and the antibodies against digoxigenin of HBV DNA were determined.
The digoxigenin-labeled DNA was detected immunologically in accordance with the instructions of the manufacturer.
Briefly speaking, the filler membrane were washed and prehybridized with a blocking agent (in accordance with the instructions of the manufacturer). […] The chemiluminescent signals of the Hepatitis B-specific DNA were measured by exposing of the filters to an X-ray film (incubation for 10 minutes to 2 hours depending on the signal strength) to determine the half-maximum inhibitory concentration (IC50). […]

[1] = Cytotoxicity in HepG 2.2.15 cells (cell morphology under microscope after 8 days, Reed & Muench); type: cell-based; details: human, pathological changes after 8 days, read-out: TC50 (half-maximum toxic concentration)
Procedure: as §1
as §2, with “2^10-fold. […]” for “2^10-fold.”
Substances-induced cytotoxic or cytostatic changes in HepG 2.2.15 cells were determined as changes in the cell morphology, for example under an optical microscope. […] The average degree of the pathological change and percent inhibition at each concentration were calculated, and a half-maximum toxic concentration (TC50) and a maximum non-toxic concentration TC0 were determined according to Reed & Muench methods. […]
The cytotoxicity and antiviral activity of the compounds according to the present invention were determined by the methods as described above, and the results were shown in Table 1.

| Structure (SMILES) | IC50 (HBV DNA) | SI (HBV DNA) | CC50 at 8 days [1] |
| --- | --- | --- | --- |
| COC(=O)C1=C(C)NC(c2cccs2)=NC1c1ccc(F)cc1Cl (stereo not drawn) [Example 1, methyl 2-(thien-2-yl)-4-(2-chloro-4-fluorophenyl)-6-methyl-1,4-dihyropyrimidin-5-carboxylate] | 0.007 µM | >10^5 | 1100 µM |
| COC(=O)C1=C(C)NC(c2cccs2)=NC1c1ccccc1 (stereo not drawn) [Example 4, methyl 2-(thien-2-yl)-4-phenyl-6-methyl-1,4-dihyropyrimidin-5-carboxylate] | 29.6 µM | 3.56 | 105 µM |

Source: US8106196B2, “Dihydropyrimidine compounds and their uses in manufacture of a medicament for treatment and prevention of viral diseases” (Beijing Molecule Science and Technology Co., Ltd, priority 2007, dated 2012)
